Source: US20130023681A1, “STABILIZED DOXERCALCIFEROL AND PROCESS FOR MANUFACTURING THE SAME” (ALPHORA RESEARCH INC., priority 2010, published 2013)
Entries after “also recorded” stand apart in the source; their conditions may differ.

How the values were obtained:
[1] = Accelerated storage study (HPLC analysis of stored samples); assay type: physicochemical
Description: (§1) Samples of material generated by the aforementioned procedure were quarantined, stored and subjected to 2 stability studies:
(§2) Both studies employed ICH-compliant stability chambers for controlled storage, and the following HPLC method for analysis of samples:
(§3) HPLC Detector/wavelength: Photo Diode Array Detector/190-400 nm
(§4) Column: Waters SUNFIRE C18, 4.6 by 150 mm, 3.5 μm
(§5) Column/sample Temperature: 25° C./5° C.
(§6) Flow Rate/injection volume: 1.2 mL per min/10.00 μL
(§7) Sample concentration: 1 mg/mL
(§8) Diluent: Water: DCM: MeOH: ACN (10: 5: 10: 75)
(§9) Eluent: A (H2O); B (ACN); C (MeOH)
Samples were subjected to the following conditions: 25±2° C./60±2% R.H., Argon headspace. Samples were stored in ICH-compliant stability chambers, sampled at 1, 3 and 6 months, and analyzed using the described HPLC method.

[2] = Long term stability study (HPLC analysis of stored samples); assay type: physicochemical
Description: as §1, §2, §3, §4, §5, §6, §7, §8, §9
Samples were subjected to the following conditions: 5±3° C. Argon headspace, −20±5° C., Argon headspace. Samples were stored in ICH-compliant stability chambers, sampled at 1, 3, 6 and 9 months, and analyzed using the described HPLC method.

For `C=C1/C(=C\C=C2/CCC[C@]3(C)[C@@H]([C@H](C)/C=C/[C@H](C)C(C)C)CC[C@@H]23)C[C@@H](O)C[C@@H]1O` [1α-hydroxyvitamin D2], the “HPLC purity after accelerated storage” value ([1]; 25±2° C./60±2% R.H., Argon headspace, time-points 1, 3 and 6 months, initial (t=0) HPLC a/a purity >99.0% a/a) was ≥ 99.0%, the “HPLC assay after accelerated storage” value ([1]; 25±2° C./60±2% R.H., Argon headspace, time-points 1, 3 and 6 months, initial (t=0) HPLC w/w assay >99.0% w/w) was ≥ 99.0 % w/w and the “Change in purity on accelerated storage (in words)” value ([1]; samples of purity 99% and above, 1, 3 and 6 months at 25±2° C., relative humidity 60±2%, argon headspace) was “no reduction in purity”. For the same compound, the “HPLC purity after long term storage” value ([2]; 5±3° C. Argon headspace, −20±5° C. Argon headspace, time-points 1, 3, 6 and 9 months, initial (t=0) HPLC a/a purity >99.0% a/a) was ≥ 99.0%, the “HPLC assay after long term storage” value ([2]; 5±3° C. Argon headspace, −20±5° C. Argon headspace, time-points 1, 3, 6 and 9 months, initial (t=0) HPLC w/w assay >99.0% w/w) was ≥ 99.0 % w/w and the “Change in purity / stability in ICH stability studies (in words)” value ([2]; samples of purity 99% and above, six months under argon headspace at either −20±5° C. or 5±3° C.) was “unexpectedly high stability; also recorded: no reduction in purity”.
